Assay results as given in article PMC11676982, “Heterotropic Activation of Cytochrome P450 3A4 by Perillyl Alcohol” (Pharmaceutics, 2024).

Legend:
CYP2A6 = molecular target: T1, CYP2A6 (Homo sapiens, UniProt P11509); assay: Determination of CYP inhibition mode and Ki in pooled HLMs, CYP2A6-mediated coumarin 7-hydroxylation
T1 sequence (P11509 1-494): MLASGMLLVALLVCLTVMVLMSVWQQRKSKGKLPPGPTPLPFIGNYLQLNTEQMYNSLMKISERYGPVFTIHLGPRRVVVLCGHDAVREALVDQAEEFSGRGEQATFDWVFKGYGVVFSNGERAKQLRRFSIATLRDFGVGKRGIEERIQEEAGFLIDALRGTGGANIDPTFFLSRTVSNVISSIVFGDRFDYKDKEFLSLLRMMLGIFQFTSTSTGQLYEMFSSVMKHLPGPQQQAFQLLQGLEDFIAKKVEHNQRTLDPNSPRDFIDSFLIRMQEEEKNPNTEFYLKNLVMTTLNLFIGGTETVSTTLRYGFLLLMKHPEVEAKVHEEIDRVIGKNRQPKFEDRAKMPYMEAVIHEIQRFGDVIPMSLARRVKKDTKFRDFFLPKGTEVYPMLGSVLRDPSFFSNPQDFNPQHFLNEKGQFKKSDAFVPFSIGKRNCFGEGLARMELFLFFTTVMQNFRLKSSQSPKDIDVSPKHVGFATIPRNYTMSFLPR
Description: A 5 min pre-incubation was performed prior to initiating reactions with the addition of 1 mM NADPH. After incubation at 37 °C for 10 min, 200 μL of ice-cold acetonitrile containing 100 nM carbamazepine as an internal standard was added to terminate the reaction. The samples were agitated and centrifuged at 4 °C for 20 min at 3000× g. The supernatants were transferred to a 96-well plate for LC-MS/MS analysis. The experiment was performed using three separate samples.
Data acquired from the evaluation of enzyme inhibition using various concentrations of substrates and test compounds were fit to different models (competitive, noncompetitive, uncompetitive, or mixed), and inhibition constant (Ki) and goodness of fit values were obtained using GraphPad Prism. The appropriate type of inhibition was selected based on statistical goodness of fit tests including Akaike’s information criterion (AICc) with correction for small sample size and the standard deviation of the residuals (Sy.x).

CYP3A4 = CYP3A4 (Homo sapiens, UniProt P08684)
Sequence of CYP3A4 (P08684 whole entry): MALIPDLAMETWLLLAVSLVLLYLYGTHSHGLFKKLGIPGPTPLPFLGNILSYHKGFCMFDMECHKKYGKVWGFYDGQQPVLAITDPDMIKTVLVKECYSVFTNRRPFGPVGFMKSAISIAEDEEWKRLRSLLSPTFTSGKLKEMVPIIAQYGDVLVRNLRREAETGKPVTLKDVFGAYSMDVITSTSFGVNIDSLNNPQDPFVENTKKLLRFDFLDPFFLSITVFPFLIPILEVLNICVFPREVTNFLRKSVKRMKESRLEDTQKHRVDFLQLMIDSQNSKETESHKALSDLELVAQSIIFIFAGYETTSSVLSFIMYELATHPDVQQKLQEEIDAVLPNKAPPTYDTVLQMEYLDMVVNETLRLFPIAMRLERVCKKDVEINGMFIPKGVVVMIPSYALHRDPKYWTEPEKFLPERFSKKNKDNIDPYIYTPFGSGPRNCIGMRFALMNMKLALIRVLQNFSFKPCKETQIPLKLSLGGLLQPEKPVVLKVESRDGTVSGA

C=C(C)[C@@H]1CC=C(CO)CC1 [(−)-POH, (−)-perillyl alcohol]
Type of inhibition, CYP2A6 (CYP2A6; best fit by AICc and Sy.x, Dixon plots): mixed inhibition model | Ki, CYP2A6, uncompetitive model (not selected) (CYP2A6; pooled HLMs, coumarin, 95% CI in parentheses): 10.9 (9.16–12.9) μM | Formation of 1′-OH-MDZ relative to control without (−)-POH (CYP3A4; human, 10 min, 50 μM, pH 7.4): 1.83 fold | Effect on CYP3A4 (midazolam) activity, MDZ 1′-hydroxylation (CYP3A4; pooled HLMs, substrate midazolam, test compound 0–50 μM): Stimulation *
